For this data set, the system named is CCRIS mutagenicity, Ames/micronucleus/aberration tests. In words: CCRIS mutagenicity studies.
Where [1] appears, read: Test System: AMES SALMONELLA TYPHIMURIUM, Strain/Indicator: TA98, Metabolic Activation: HAMSTER, LIVER, S-9, AROCLOR 1254 (10%), Method: PREINCUBATION
The mark [2] stands for this setting: Test System: AMES SALMONELLA TYPHIMURIUM, Strain/Indicator: TA98, Metabolic Activation: NONE, Method: PREINCUBATION
The mark [3] stands for this setting: Test System: AMES SALMONELLA TYPHIMURIUM, Strain/Indicator: TA98, Metabolic Activation: RAT, LIVER, S-9, AROCLOR 1254 (10%), Method: PREINCUBATION
Where [4] appears, read: Test System: AMES SALMONELLA TYPHIMURIUM, Strain/Indicator: TA100, Metabolic Activation: HAMSTER, LIVER, S-9, AROCLOR 1254 (10%), Method: PREINCUBATION
The mark [5] stands for this setting: Test System: AMES SALMONELLA TYPHIMURIUM, Strain/Indicator: TA100, Metabolic Activation: NONE, Method: PREINCUBATION
The mark [6] stands for this setting: Test System: AMES SALMONELLA TYPHIMURIUM, Strain/Indicator: TA100, Metabolic Activation: RAT, LIVER, S-9, AROCLOR 1254 (10%), Method: PREINCUBATION
[7] abbreviates: Test System: AMES SALMONELLA TYPHIMURIUM, Strain/Indicator: TA1535, Metabolic Activation: HAMSTER, LIVER, S-9, AROCLOR 1254 (10%), Method: PREINCUBATION
[8] abbreviates: Test System: AMES SALMONELLA TYPHIMURIUM, Strain/Indicator: TA1535, Metabolic Activation: NONE, Method: PREINCUBATION
[9] abbreviates: Test System: AMES SALMONELLA TYPHIMURIUM, Strain/Indicator: TA1535, Metabolic Activation: RAT, LIVER, S-9, AROCLOR 1254 (10%), Method: PREINCUBATION
[10] abbreviates: Test System: AMES SALMONELLA TYPHIMURIUM, Strain/Indicator: TA1537, Metabolic Activation: NONE, Method: PREINCUBATION
Setting [11] is: Test System: AMES SALMONELLA TYPHIMURIUM, Strain/Indicator: TA100, Metabolic Activation: NONE, Method: STANDARD PLATE.
Setting [12] is: Test System: MOUSE LYMPHOMA, Strain/Indicator: L5178Y (TK+/TK-), Metabolic Activation: NONE, Method: SUSPENSION/PLATE.

Structures are written as SMILES. Activity calls are given as the source filed them. The rule behind the calls is not given here.

As for `CC(N)CN` (configuration not stated), the mutagenic call under setting [1] was “inactive; negative”; the mutagenic call under setting [2] is “inactive; negative”; the mutagenic call under setting [3] is “inactive; negative”; the mutagenic call under setting [4] is “inactive; negative”; the mutagenic call under setting [5] is “inactive; negative”; the mutagenic call under setting [6] was “inactive; negative”. Besides, the mutagenic call by setting is: under setting [7], “inactive; negative”; under setting [8], “inactive; negative”; under setting [9], “inactive; negative”; (Test System: AMES SALMONELLA TYPHIMURIUM, Strain/Indicator: TA1537, Metabolic Activation: HAMSTER, LIVER, S-9, AROCLOR 1254 (10%), Method: PREINCUBATION) “inactive; negative”; under setting [10], “inactive; negative”; (Test System: AMES SALMONELLA TYPHIMURIUM, Strain/Indicator: TA1537, Metabolic Activation: RAT, LIVER, S-9, AROCLOR 1254 (10%), Method: PREINCUBATION) “inactive; negative”.
Consider `Nc1ccc(O)c([N+](=O)[O-])c1`, for which the mutagenic call was “inactive; negative” (Test System: AMES SALMONELLA TYPHIMURIUM, Strain/Indicator: TA97, Metabolic Activation: HAMSTER, LIVER, S-9, AROCLOR 1254 (10%), Method: PREINCUBATION); “inactive; negative” (Test System: AMES SALMONELLA TYPHIMURIUM, Strain/Indicator: TA97, Metabolic Activation: NONE, Method: PREINCUBATION); “inactive; negative” (Test System: AMES SALMONELLA TYPHIMURIUM, Strain/Indicator: TA97, Metabolic Activation: RAT, LIVER, S-9, AROCLOR 1254 (10%), Method: PREINCUBATION); “inactive; negative” under setting [1]; “active; positive” under setting [2]; “inactive; negative” (Test System: AMES SALMONELLA TYPHIMURIUM, Strain/Indicator: TA98, Metabolic Activation: NONE, Method: STANDARD PLATE). Besides, the mutagenic call runs as follows: under setting [3], “inactive; negative”; (Test System: AMES SALMONELLA TYPHIMURIUM, Strain/Indicator: TA98, Metabolic Activation: RAT, LIVER, S-9, AROCLOR 1254, Method: STANDARD PLATE) “inactive; negative”; under setting [4], “inactive; negative”; under setting [5], “inactive; negative”; under setting [11], “inactive; negative”; under setting [6], “inactive; negative”. Besides, the mutagenic call reads like this: (Test System: AMES SALMONELLA TYPHIMURIUM, Strain/Indicator: TA100, Metabolic Activation: RAT, LIVER, S-9, AROCLOR 1254, Method: STANDARD PLATE) “inactive; negative”; under setting [7], “inactive; negative”; under setting [8], “inactive; negative”; (Test System: AMES SALMONELLA TYPHIMURIUM, Strain/Indicator: TA1535, Metabolic Activation: NONE, Method: STANDARD PLATE) “inactive; negative”; under setting [9], “inactive; negative”; (Test System: AMES SALMONELLA TYPHIMURIUM, Strain/Indicator: TA1535, Metabolic Activation: RAT, LIVER, S-9, AROCLOR 1254, Method: STANDARD PLATE) “inactive; negative”. Besides, the mutagenic call by setting is: (Test System: AMES SALMONELLA TYPHIMURIUM, Strain/Indicator: TA1537, Metabolic Activation: NONE, Method: STANDARD PLATE) “inactive; negative”; (Test System: AMES SALMONELLA TYPHIMURIUM, Strain/Indicator: TA1537, Metabolic Activation: RAT, LIVER, S-9, AROCLOR 1254, Method: STANDARD PLATE) “inactive; negative”; (Test System: AMES SALMONELLA TYPHIMURIUM, Strain/Indicator: TA1538, Metabolic Activation: NONE, Method: STANDARD PLATE) “inactive; negative”; (Test System: AMES SALMONELLA TYPHIMURIUM, Strain/Indicator: TA1538, Metabolic Activation: RAT, LIVER, S-9, AROCLOR 1254, Method: STANDARD PLATE) “inactive; negative”; (Test System: E. COLI, Strain/Indicator: WP2 UVRA, Metabolic Activation: HAMSTER, LIVER, S-9, AROCLOR 1254, Method: STANDARD PLATE) “inactive; negative”; (Test System: E. COLI, Strain/Indicator: WP2 UVRA, Metabolic Activation: HAMSTER, LIVER, S-9, Method: STANDARD PLATE) “inactive; negative”. Besides, the mutagenic call by setting is: (Test System: E. COLI, Strain/Indicator: WP2 UVRA, Metabolic Activation: MOUSE, LIVER, S-9, AROCLOR 1254, Method: STANDARD PLATE) “inactive; negative”; (Test System: E. COLI, Strain/Indicator: WP2 UVRA, Metabolic Activation: MOUSE, LIVER, S-9, Method: STANDARD PLATE) “inactive; negative”; (Test System: E. COLI, Strain/Indicator: WP2 UVRA, Metabolic Activation: NONE, Method: STANDARD PLATE) “inactive; negative”; (Test System: E. COLI, Strain/Indicator: WP2 UVRA, Metabolic Activation: RAT, LIVER, S-9, AROCLOR 1254, Method: STANDARD PLATE) “inactive; negative”; (Test System: E. COLI, Strain/Indicator: WP2 UVRA, Metabolic Activation: RAT, LIVER, S-9, Method: STANDARD PLATE) “inactive; negative”; under setting [12], “active; positive”. The mutagenic call (Test System: MOUSE LYMPHOMA, Strain/Indicator: L5178Y (TK+/TK-), Metabolic Activation: RAT, LIVER, S-9, AROCLOR 1254, Method: SUSPENSION/PLATE) is “active; positive”.
For `OCc1ccc(Br)cc1`, the mutagenic call under setting [11] was “inactive; negative”.
Take `Nc1c(S(=O)(=O)O)cc(Nc2cccc(S(=O)(=O)CCOS(=O)(=O)O)c2)c2c1C(=O)c1ccccc1C2=O`: the mutagenic call under setting [12] is “active; positive”.
On to `Clc1c(Cl)c(Cl)c2ccccc2c1Cl`, for which the mutagenic call (Test System: AMES SALMONELLA TYPHIMURIUM, Strain/Indicator: TA98, Metabolic Activation: HAMSTER, LIVER, S-9, AROCLOR 1254, Method: PREINCUBATION) was “inactive; negative”; the mutagenic call under setting [2] was “inactive; negative”; the mutagenic call (Test System: AMES SALMONELLA TYPHIMURIUM, Strain/Indicator: TA98, Metabolic Activation: RAT, LIVER, S-9, AROCLOR 1254, Method: PREINCUBATION) was “inactive; negative”; the mutagenic call (Test System: AMES SALMONELLA TYPHIMURIUM, Strain/Indicator: TA100, Metabolic Activation: HAMSTER, LIVER, S-9, AROCLOR 1254, Method: PREINCUBATION) was “inactive; negative”; the mutagenic call under setting [5] was “inactive; negative”; the mutagenic call (Test System: AMES SALMONELLA TYPHIMURIUM, Strain/Indicator: TA100, Metabolic Activation: RAT, LIVER, S-9, AROCLOR 1254, Method: PREINCUBATION) was “inactive; negative”. Moreover, the mutagenic call was “inactive; negative” (Test System: AMES SALMONELLA TYPHIMURIUM, Strain/Indicator: TA1535, Metabolic Activation: HAMSTER, LIVER, S-9, AROCLOR 1254, Method: PREINCUBATION); “inactive; negative” under setting [8]; “inactive; negative” (Test System: AMES SALMONELLA TYPHIMURIUM, Strain/Indicator: TA1535, Metabolic Activation: RAT, LIVER, S-9, AROCLOR 1254, Method: PREINCUBATION); “inactive; negative” (Test System: AMES SALMONELLA TYPHIMURIUM, Strain/Indicator: TA1537, Metabolic Activation: HAMSTER, LIVER, S-9, AROCLOR 1254, Method: PREINCUBATION); “inactive; negative” under setting [10]; “inactive; negative” (Test System: AMES SALMONELLA TYPHIMURIUM, Strain/Indicator: TA1537, Metabolic Activation: RAT, LIVER, S-9, AROCLOR 1254, Method: PREINCUBATION).

The values are drawn from PubChem BioAssay AID1259407 (Chemical Carcinogenesis Research Information System (CCRIS), 2018).
